Experimental data as given in PubChem BioAssay (NCI).
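Results reflect a 48-hour exposure of cells in 96-well plates to compound at five concentrations. TGI is the concentration that stops growth completely.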 Where a SMILES comes first, the peptide text is derived from it. The star is where a group is joined. X36 = O=C(c1ccc(-c2ccc(Cl)cc2Cl)o1)*

Experiments:
Assay in all cases: DTP human tumour cell line panel, 48 h
[1] = system: SF-539 CNS
[2] = system: SN12C renal
[3] = system: ACHN renal
[4] = system: HCC-2998 colon
[5] = system: HCT-15 colon
[6] = system: SK-MEL-2 melanoma
[7] = system: SF-268 CNS
[8] = system: OVCAR-3 ovarian
[9] = system: UO-31 renal
[10] = system: MCF7 breast
[11] = system: SF-295 CNS

C1CCC2C(C1)CCCC2NC1=NCCO1 (configuration not stated)
TGI [1]: > 100 µM
TGI [2]: > 100 µM
TGI [3]: > 100 µM
TGI [4]: > 100 µM
TGI [5]: > 100 µM
TGI [6]: > 100 µM
TGI [7]: > 100 µM
TGI [8]: > 100 µM
TGI [9]: > 100 µM
TGI [10]: > 100 µM
TGI [11]: > 100 µM

CCC(C)C(NC(=O)CNC(=O)C(Cc1ccccc1)NC(=O)C1CCCN1C(=O)c1ccc(-c2ccc(Cl)cc2Cl)o1)C(=O)OC (configuration not stated) (X36-PFGI-OMe; configuration not given here)
TGI [1]: 86.6 µM
TGI [2]: 82.6 µM
TGI [3]: > 100 µM
TGI [4]: 64 µM
TGI [5]: > 100 µM
TGI [6]: > 100 µM
TGI [7]: > 100 µM
TGI [8]: > 100 µM
TGI [9]: > 100 µM
TGI [10]: > 100 µM
TGI [11]: > 100 µM

N#Cc1c(-c2ccccc2)nc(-c2ccccc2)sc1=S
TGI [1]: > 100 µM
TGI [2]: > 100 µM
TGI [3]: > 100 µM
TGI [4]: > 100 µM
TGI [5]: > 100 µM
TGI [6]: > 100 µM
TGI [7]: > 100 µM
TGI [8]: > 100 µM
TGI [9]: > 100 µM
TGI [10]: > 100 µM
TGI [11]: > 100 µM

COc1ccc(/C=N/N=C(\N)NO)c(O)c1
TGI [1]: > 10 µM
TGI [2]: > 10 µM
TGI [3]: > 10 µM
TGI [4]: > 10 µM
TGI [5]: > 10 µM
TGI [6]: > 10 µM
TGI [7]: > 10 µM
TGI [8]: > 10 µM
TGI [9]: > 10 µM
TGI [10]: > 10 µM
TGI [11]: > 10 µM

CC1=NN2C(=N)/C(=C/c3ccco3)C(=O)N=C2S1
TGI [1]: > 100 µM
TGI [2]: > 100 µM
TGI [3]: > 100 µM
TGI [4]: > 100 µM
TGI [5]: > 100 µM
TGI [6]: > 100 µM
TGI [7]: > 100 µM
TGI [8]: > 100 µM
TGI [9]: > 100 µM
TGI [10]: > 100 µM
TGI [11]: > 100 µM

Cc1ccc(/C(O)=C/C(=O)C(=O)/C=C(\O)c2ccc(C)cc2C)c(C)c1
TGI [1]: 3.56 µM
TGI [2]: 4.88 µM
TGI [3]: 3.65 µM
TGI [4]: 4.09 µM
TGI [5]: 4.47 µM
TGI [6]: 3.65 µM
TGI [7]: 4.02 µM
TGI [8]: 3.51 µM
TGI [9]: 3.65 µM
TGI [10]: 4.33 µM
TGI [11]: 3.38 µM

CC(=O)O[C@H]1CC[C@@]2(C)C(=CC[C@H]3[C@@H]4C[C@H](N5CCCC5)[C@H](OC(C)=O)[C@@]4(C)CC[C@@H]32)C1
TGI [1]: > 65.3 µM
TGI [2]: > 100 µM
TGI [3]: > 100 µM
TGI [4]: > 100 µM
TGI [5]: > 100 µM
TGI [6]: > 100 µM
TGI [7]: > 100 µM
TGI [8]: > 100 µM
TGI [9]: > 100 µM
TGI [10]: > 100 µM
TGI [11]: > 100 µM
